Read-outs that look alike come from different tables or passages of the source.
What was measured:
[1] = tested on: AMN human patient-derived primary fibroblasts; assay: Hexacosanoic acid (VLCFA) level in AMN patient-derived fibroblasts, LC-MS; type: cell-based; conditions: AMN patient-derived fibroblasts
Description: In order to compare the efficacy of PXL770 and metformin to lower very long chain fatty acids (VLCFA) in vitro, the study focuses on the level assessment of the hexacosanoic acid, which is the most prevalent VLCFA, in healthy control cells and in AMN human patient-derived primary fibroblasts. The cell lines were obtained from Coriell Cell Repositories. Fibroblasts were cultured in DMEM with 15% FBS. The cultures were split in 1:5 ratio. Fibroblasts from healthy patients were used as control. All treatments were in complete media containing fetal bovine serum (FBS, 15%). All cultured cells were maintained at 37° C. in 5% CO2.
VLCFA content was then measured as follows. Samples are adjusted to a final volume of 0.5-1 ml with LC-MS grade water and spiked with 10 ng of Lignoceric acid-d4 as an internal standard. The sample is acidified to pH 3-4 with dilute hydrochloric acid and extracted with isooctane-ethyl acetate (9:1) three times with equal volume. The extract is dried under nitrogen and the residue is reconstituted in methanol-water-ammonium acetate (75:25:10 mM).
Total fatty acids: After preparing the samples with internal standard as described above for free fatty acids, aqueous sodium hydroxide is added to a final concentration of 1 M. The mixture is incubated at 37° C. in dark under nitrogen for 3 h. The samples are then acidified, extracted, and reconstituted as described above.
LC-MS analysis of fatty acids: The reconstituted fatty acid extracts are subjected to HPLC on Targa C8 column (2×10 mm) using methanol-aqueous ammonium acetate (10 mM) solvent mixture. The column is eluted with a gradient of methanol (75 to 90%) over 8 min at a flow rate of 0.25 ml/min. The column eluent is directly introduced to mass analyzer (QTRAP5500) and monitored for fatty acids using published pseudo MRM method. Under these conditions, the VLCFA elute between 5 and 8 min. Each fatty acid is quantitated against the added internal standard.
The study planned different groups of patients. First, the evolution of hexacosanoic acid in fibroblasts is monitored in healthy control cells and in AMN human patient-derived primary fibroblasts; and in a second time a treatment of PXL770 was assigned to AMN human-derived primary fibroblasts in culture at different doses (PXL770: 0.1, 0.5, 1, 2, 3.5 and 5 μM; metformin: 100, 200, 300 and 400 μM) for one week and the level of hexacosanoic acid was measured.
The experiment described in Example 3 was reproduced with various thienopyridone compounds, namely: • PXL770: potassium 2-chloro-3-(5-hydroxytetralin-6-yl)-6-oxo-5-phenyl-7H-thieno[2,3-b]pyridin-4-olate • PXL700: 2-chloro-4-hydroxy-3-indan-5-yl-5-(3-pyridyl)-7H-thieno[2,3-b]pyridin-6-one • PXL702: 2-chloro-4-hydroxy-3-(4-hydroxyindan-5-yl)-5-phenyl-7H-thieno[2,3-b]pyridin-6-one • PXL695: 2-chloro-5-(3-fluorophenyl)-4-hydroxy-3-(4-hydroxyindan-5-yl)-7H-thieno[2,3-b]pyridin-6-one, • each tested at concentrations from 0.1 to 5 μM.
A one-way ANOVA with Dunnett's multiple comparison test was performed to assess the effect of PXL770 on brain's VLCFAs (**** p<0.0001, *** p<0.001). A Kruskal-Wallis test with Dunn's multiple comparison test was performed to assess the effect of PXL770 on plasma's VLCFAs (**** p<0.0001, […]).

[2] = tested on: AMN human patient-derived primary lymphocytes; conditions: AMN patient's derived lymphocytes, 5 mM, 7 days of treatment; FIG. 9; cited from earlier work
[3] = tested on: ABCD2; conditions: ABCD1-KO mice glial cells, 100 μM; FIG. 12; cited from earlier work
[4] = tested on: ABCD2; conditions: ALD patient's derived fibroblasts, 5 mM; FIG. 11; cited from earlier work
[5] = tested on: cultured fibroblasts; conditions: cited from earlier work
[6] = tested on: ABCD2; conditions: AMN patient's derived fibroblasts, 5 mM; FIG. 11; cited from earlier work
[7] = tested on: ALD patient-derived lymphocytes; conditions: ALD patient's derived lymphocytes, 5 mM, 7 days of treatment; FIG. 9; cited from earlier work
[8] = concentrations from 0.1 to 5 μM, FIG. 14

In the case of O=c1[nH]c2sc(Cl)c(-c3ccc4c(c3)CCC4)c2c(O)c1-c1cccnc1 [PXL700, 2-chloro-4-hydroxy-3-indan-5-yl-5-(3-pyridyl)-7H-thieno[2,3-b]pyridin-6-one, reference compound], the VLCFA levels [1, 8] is reported as “no or a very limited effect”.
For O=c1[nH]c2sc(Cl)c(-c3ccc4c(c3O)CCC4)c2c(O)c1-c1ccccc1 [PXL702, 2-chloro-4-hydroxy-3-(4-hydroxyindan-5-yl)-5-phenyl-7H-thieno[2,3-b]pyridin-6-one], the VLCFA levels [1, 8] was “comparable decrease”.
In the case of O=c1[nH]c2sc(Cl)c(-c3ccc4c(c3O)CCC4)c2c(O)c1-c1cccc(F)c1 [PXL695, 2-chloro-5-(3-fluorophenyl)-4-hydroxy-3-(4-hydroxyindan-5-yl)-7H-thieno[2,3-b]pyridin-6-one], the VLCFA levels [1, 8] is reported as “comparable decrease”.
In the case of CN(C)C(=N)N=C(N)N [metformin], the “decrease of VLCFA content” value [2] is given as −29%, the ABCD2 protein levels [3] is given as “limited increase” and the ABCD2 protein expression [4] is given as “only slightly increased”. For the same molecule, the VLCFA levels ([1]; 400 μM, compared with thienopyridones at 5 μM, FIG. 15) was “no or a very limited effect”, the “dose at which efficacy is observed” value [5] was “at least 100 μM” and the ABCD2 protein expression [6] was “only slightly increased”. The “decrease of VLCFA content” value [7] was −42%.

Reference: patent US11850238B2, “Use of a thienopyridone derivative in the treatment of adrenoleukodystrophy or adrenomyeloneuropathy” (POXEL, priority 2020, dated 2023)
